Test results taken from patent publication US20140205553A1, “AGENT FOR ENHANCING THE EFFECT OF SKIN-WHITENING INGREDIENTS AND USES THEREOF” (Hayashibara Co., Ltd., priority 2010, published 2014).
Like-named read-outs stand apart in the source and are kept apart here.

Tested on: mouse B16 melanoma cells
Test: Melanin formation by mouse B16 melanoma cells cultured with test samples (melanin content, absorbance 450 nm)
Assay type: cell-based
Protocol: The effect of nucleic-acid-related compounds on melanin-formation inhibition was evaluated by using mouse B16 melanoma cells frequently used as an index for evaluating skin-whitening agents used in external dermatological agents. Since nucleic-acid-related compounds are roughly classified into purine and pyrimidine compounds, the following respective representative compounds were used as test samples. […] Thereafter, cells were collected after adding trypsin-EDTA to each well and subjecting the resultant to centrifugation. The collected cells were washed once with Dulbecco's PBS (-) (abbreviated as “D-PBS”, hereinafter) and centrifuged to remove the supernatant. To the remaining cell pellet was added 0.5 ml of 1N sodium hydroxide to solubilize the cells. The resulting alkali-solubilized solution was boiled for 30 min and determined for melanin content by the following method. […] Each of these wells was assayed for melanin content similarly as above. […] In this and the following experiments, it means that the lower the melanin formation percentage, the higher the melanin-formation inhibitory effect, i.e., the skin-whitening effect.

[1] = test sample 1 μM in liquid culture medium, 5 days, negative control = 100
[2] = test sample 5 μM in liquid culture medium, 5 days, negative control = 100
[3] = Experiment 1, test sample 10 μM
[4] = Mus musculus, B16, 120 h, molar ratio guanine:adenine or equol 0:1, total concentration 5 μM, read-out: Melanin formation percentage
[5] = Mus musculus, B16, 120 h, test sample 2.5 μM in liquid culture medium, 5 days, negative control = 100, read-out: Melanin formation percentage
[6] = Mus musculus, B16, 120 h, test sample 5 μM in liquid culture medium, 5 days, negative control = 100, read-out: Melanin formation percentage
[7] = Mus musculus, B16, 120 h, test sample 10 μM in liquid culture medium, 5 days, negative control = 100, read-out: Melanin formation percentage
[8] = Mus musculus, B16, 120 h, test sample 20 μM in liquid culture medium, 5 days, negative control = 100, read-out: Melanin formation percentage
[9] = Experiment 2, test sample 5 μM alone
[10] = Mus musculus, B16, 120 h, test sample 1 μM in liquid culture medium, 5 days, negative control = 100, read-out: Melanin formation percentage
[11] = test sample 10 μM in liquid culture medium, 5 days, negative control = 100
[12] = test sample 20 μM in liquid culture medium, 5 days, negative control = 100

How did the Melanin formation percentage [1] turn out when OC[C@H]1O[C@H](Oc2ccc([C@H]3COc4cc(O)ccc4C3)cc2)[C@H](O)[C@@H](O)[C@@H]1O [4′-Glucosyl-S-equol, 4′-O-α-D-glycopyranosyl-S-equol] was run?
Its Melanin formation percentage is 85%.

What about the Melanin formation percentage [2] of the same molecule?
The Melanin formation percentage was 74%.

How did the Melanin formation percentage [1] turn out when OC[C@H]1O[C@H](Oc2ccc3c(c2)OC[C@H](c2ccc(O)cc2)C3)[C@H](O)[C@@H](O)[C@@H]1O [7-Glucosyl-S-equol, 7-O-α-D-glycopyranosyl-S-equol] was run?
Its Melanin formation percentage is 85%.

And the Melanin formation percentage [2]?
The Melanin formation percentage was 75%.

How did the “Melanin-formation inhibition (in words)” value [3] turn out when Nc1ncnc2nc[nH]c12 [Adenine] was run?
Its value is “inhibited”.

What about the activity at 5 µM [4] of the same molecule?
The activity at 5 µM was 83%.

And the activity at 2.5 µM [5]?
Its activity at 2.5 µM is 95%.

And the activity at 5 µM [6]?
Its activity at 5 µM is 83%.

And the activity at 10 µM [7]?
Its activity at 10 µM is 60%.

What about the activity at 20 µM [8] of the same molecule?
The activity at 20 µM was 39%.

Which activity at 5 µM [6] does the source give for Nc1ncnc2c1ncn2[C@@H]1O[C@H](COP(=O)(O)OP(=O)(O)O)[C@@H](O)[C@H]1O [Adenosine 5′-diphosphate, adenosine 5′-diphosphate] here?
The activity at 5 µM was 93%.

What about the activity at 10 µM [7] of the same molecule?
The activity at 10 µM was 81%.

And the activity at 20 µM [8]?
Its activity at 20 µM is 51%.

What does the source list for Nc1ncnc2c1ncn2[C@@H]1O[C@H](COP(=O)(O)O)[C@@H](O)[C@H]1O [Adenosine 5′-monophosphate, adenosine 5′-monophosphate]?
activity at 2.5 µM [5]: 97%; activity at 5 µM [6]: 100%; activity at 10 µM [7]: 82%; activity at 20 µM [8]: 60%

With Nc1ncnc2c1ncn2[C@@H]1O[C@H](COP(=O)(O)OP(=O)(O)OP(=O)(O)O)[C@@H](O)[C@H]1O [Adenosine 5′-triphosphate, adenosine 5′-triphosphate] as the molecule, how does the activity at 5 µM [6] read?
Its activity at 5 µM is 93%.

What about the activity at 10 µM [7] of the same molecule?
Its activity at 10 µM is 80%.

And the activity at 20 µM [8]?
The activity at 20 µM was 53%.

Which activity at 2.5 µM [5] does the source give for Nc1ncnc2c1ncn2[C@@H]1O[C@H](CO)[C@@H](O)[C@H]1O [Adenosine, adenosine] here?
Its activity at 2.5 µM is 98%.

And the activity at 5 µM [6]?
The activity at 5 µM was 94%.

What about the activity at 10 µM [7] of the same molecule?
Its activity at 10 µM is 71%.

What about the activity at 20 µM [8] of the same molecule?
Its activity at 20 µM is 48%.

For Nc1cc[nH]c(=O)n1 [Cytosine, reference compound], which “Melanin-formation inhibition (in words)” value [3] is on record?
Its value is “no melanin-formation inhibition was observed”.

And the “Melanin-formation inhibition (in words)” value [9]?
Its value is “No melanin-formation inhibition was found”.

What about the activity at 5 µM [6] of the same molecule?
Its activity at 5 µM is 98%.

And the activity at 10 µM [7]?
The activity at 10 µM was 100%.

For Oc1ccc([C@H]2COc3cc(O)ccc3C2)cc1 [Equol, equol], which activity at 5 µM [4] is on record?
The activity at 5 µM was 91%.

What about the activity at 1 µM [10] of the same molecule?
The activity at 1 µM was 91%.

And the activity at 5 µM [6]?
Its activity at 5 µM is 67%.

What about the “Enhancement of the skin-whitening (melanin-formation-inhibitory) action in combination (in words)” value (skin-whitening ingredient together with guanine including derivatives or other nucleic-acid-related compound) of the same molecule?
The value was “enhanced”.

What does the source list for Nc1nc2nc[nH]c2c(=O)[nH]1 [Guanine]?
Melanin-formation inhibition (in words) [3]: no melanin-formation inhibition was observed; Melanin-formation inhibition (in words) [9]: No melanin-formation inhibition was found; activity at 5 µM (Mus musculus, B16, 120 h, read-out: Melanin formation percentage, molar ratio guanine:adenine or equol 1:0, total concentration 5 μM): 98%; activity at 1 µM (Mus musculus, B16, 120 h, read-out: Melanin formation percentage, test sample 1 μM in liquid culture medium, 5 days, negative control = 100): 100%; activity at 2.5 µM (Mus musculus, B16, 120 h, read-out: Melanin formation percentage, test sample 2.5 μM in liquid culture medium, 5 days, negative control = 100): 99%; activity at 5 µM (Mus musculus, B16, 120 h, read-out: Melanin formation percentage, test sample 5 μM in liquid culture medium, 5 days, negative control = 100): 98%; activity at 10 µM (Mus musculus, B16, 120 h, read-out: Melanin formation percentage, test sample 10 μM in liquid culture medium, 5 days, negative control = 100): 98%; activity at 20 µM (Mus musculus, B16, 120 h, read-out: Melanin formation percentage, test sample 20 μM in liquid culture medium, 5 days, negative control = 100): 101%

Nc1nc2c(ncn2[C@@H]2O[C@H](COP(=O)(O)OP(=O)(O)O)[C@@H](O)[C@H]2O)c(=O)[nH]1 [Guanosine 5′-diphosphate, guanosine 5′-diphosphate] was tested. Which activity at 5 µM [6] did it give?
The activity at 5 µM was 93%.

And the activity at 10 µM [7]?
Its activity at 10 µM is 100%.

What about the activity at 20 µM [8] of the same molecule?
Its activity at 20 µM is 95%.

For Nc1nc2c(ncn2[C@@H]2O[C@H](COP(=O)(O)O)[C@@H](O)[C@H]2O)c(=O)[nH]1 [Guanosine 5′-monophosphate, guanosine 5′-monophosphate], which activity at 1 µM [10] is on record?
Its activity at 1 µM is 99%.

And the activity at 2.5 µM [5]?
The activity at 2.5 µM was 99%.

And the activity at 5 µM [6]?
The activity at 5 µM was 100%.

What about the activity at 10 µM [7] of the same molecule?
The activity at 10 µM was 101%.

And the activity at 20 µM [8]?
The activity at 20 µM was 101%.

What does the source list for Nc1nc2c(ncn2[C@@H]2O[C@H](COP(=O)(O)OP(=O)(O)OP(=O)(O)O)[C@@H](O)[C@H]2O)c(=O)[nH]1 [Guanosine 5′-triphosphate, guanosine 5′-triuphosphate]?
Melanin formation percentage [2]: 95%; Melanin formation percentage [11]: 98%; Melanin formation percentage [12]: 97%

Nc1nc2c(ncn2[C@@H]2O[C@H](CO)[C@@H](O)[C@H]2O)c(=O)[nH]1 [Guanosine, guanosine] was tested. Which activity at 1 µM [10] did it give?
Its activity at 1 µM is 99%.

And the activity at 2.5 µM [5]?
The activity at 2.5 µM was 98%.

What about the activity at 5 µM [6] of the same molecule?
The activity at 5 µM was 98%.

What about the activity at 10 µM [7] of the same molecule?
The activity at 10 µM was 102%.

And the activity at 20 µM [8]?
The activity at 20 µM was 97%.

What does the source list for O=c1[nH]cnc2nc[nH]c12 [Hypoxanthine, reference compound]?
Melanin-formation inhibition (in words) [3]: no melanin-formation inhibition was observed; Melanin-formation inhibition (in words) [9]: No melanin-formation inhibition was found; activity at 5 µM [6]: 97%; activity at 10 µM [7]: 97%

What does the source list for OC[C@H]1O[C@@H](n2cnc3c(O)ncnc32)[C@H](O)[C@@H]1O [Inosine, reference compound]?
Melanin-formation inhibition (in words) [3]: no melanin-formation inhibition was observed; Melanin-formation inhibition (in words) [9]: No melanin-formation inhibition was found; activity at 5 µM [6]: 98%; activity at 10 µM [7]: 96%

O=c1cc(CO)occ1O [Kojic acid, reference compound] was tested. Which activity at 500 µM (Mus musculus, B16, 120 h, test sample 500 μM in liquid culture medium, 5 days, negative control = 100, read-out: Melanin formation percentage) did it give?
Its activity at 500 µM is 71%.

And the activity at 1000 µM (Mus musculus, B16, 120 h, test sample 1000 μM in liquid culture medium, 5 days, negative control = 100, read-out: Melanin formation percentage)?
Its activity at 1000 µM is 49%.

And the activity at 2000 µM (Mus musculus, B16, 120 h, test sample 2000 μM in liquid culture medium, 5 days, negative control = 100, read-out: Melanin formation percentage)?
The activity at 2000 µM was 30%.

And the “Melanin-formation-inhibitory action of the test sample alone (in words)” value (at the concentrations used in the experiment)?
Its value is “inhibited the melanin formation by mouse B16 melanoma cells in a concentration dependent manner”.

How did the Melanin formation percentage [1] turn out when Oc1ccc([C@@H]2COc3cc(O)ccc3C2)cc1 [R-Equol, R-equol] was run?
The Melanin formation percentage was 94%.

And the Melanin formation percentage [2]?
The Melanin formation percentage was 77%.

With Oc1ccc([C@H]2COc3cc(O)ccc3C2)cc1 [S-Equol, S-equol] as the molecule, how does the Melanin formation percentage [1] read?
The Melanin formation percentage was 86%.

And the Melanin formation percentage [2]?
The Melanin formation percentage was 60%.

Which results are given for Cc1c[nH]c(=O)[nH]c1=O [Thymine, reference compound]?
Melanin-formation inhibition (in words) [3]: no melanin-formation inhibition was observed; Melanin-formation inhibition (in words) [9]: No melanin-formation inhibition was found; activity at 5 µM [6]: 99%; activity at 10 µM [7]: 97%

What does the source list for O=c1cc[nH]c(=O)[nH]1 [Uracil, reference compound]?
Melanin-formation inhibition (in words) [3]: no melanin-formation inhibition was observed; Melanin-formation inhibition (in words) [9]: No melanin-formation inhibition was found; activity at 5 µM [6]: 98%; activity at 10 µM [7]: 99%

With O=c1[nH]c(=O)c2[nH]cnc2[nH]1 [Xanthine, reference compound] as the molecule, how does the “Melanin-formation inhibition (in words)” value [3] read?
The value was “no melanin-formation inhibition was observed”.

And the “Melanin-formation inhibition (in words)” value [9]?
Its value is “No melanin-formation inhibition was found”.

And the activity at 5 µM [6]?
Its activity at 5 µM is 100%.

What about the activity at 10 µM [7] of the same molecule?
The activity at 10 µM was 100%.

How did the Melanin formation percentage [2] turn out when glucosyladenosine was run?
The Melanin formation percentage was 89%.

What about the Melanin formation percentage [11] of the same molecule?
The Melanin formation percentage was 63%.

What about the Melanin formation percentage [12] of the same molecule?
Its Melanin formation percentage is 43%.

For glucosylguanosine, which Melanin formation percentage [1] is on record?
Its Melanin formation percentage is 99%.

What about the Melanin formation percentage (test sample 2.5 μM in liquid culture medium, 5 days, negative control = 100) of the same molecule?
The Melanin formation percentage was 98%.

And the Melanin formation percentage [2]?
The Melanin formation percentage was 98%.

What about the Melanin formation percentage [11] of the same molecule?
The Melanin formation percentage was 99%.

What about the Melanin formation percentage [12] of the same molecule?
The Melanin formation percentage was 99%.
